# Assay results taken from ChEMBL document CHEMBL5344418, “Recent developments in antimalarial activities of 4-aminoquinoline derivatives” (Eur J Med Chem, 2023).
# Columns and labels:
# Plasmodium falciparum [1] = experiment: Antimalarial activity against Plasmodium falciparum assessed as parasitic growth inhibition; type: functional, organism-based
# Plasmodium falciparum [2] = experiment: Antimalarial activity against Plasmodium falciparum 3D7 assessed as inhibition of parasite growth incubated for 96 hrs; type: functional, organism-based; conditions: 3D7, 96 h
# Plasmodium falciparum [3] = experiment: Antimalarial activity against chloroquine-resistant Plasmodium falciparum Dd2 assessed as inhibition of parasite growth; type: functional, organism-based
# Plasmodium falciparum [4] = experiment: Antimalarial activity against chloroquine-sensitive Plasmodium falciparum 3D7 by SYBR green I assay; type: functional, organism-based
# Plasmodium falciparum [5] = experiment: Antimalarial activity against chloroquine-resistant Plasmodium falciparum Dd2 assessed as reduction in parasitic growth incubated for 72 hrs by Giemsa-staining based microscopic analysis; type: functional, organism-based; conditions: Dd2, 72 h
# Plasmodium berghei [6] = experiment: Antimalarial activity against Plasmodium berghei ANKA; type: functional, organism-based
# Plasmodium falciparum [7] = experiment: Antimalarial activity against Plasmodium falciparum 3D7 assessed as reduction in parasite growth incubated for 48 hrs by Giemsa-staining counting based microscopic analysis; type: functional, organism-based; conditions: 3D7, 48 h
# [8] = Cytotoxicity against African green monkey Vero cells assessed as reduction in cell viability incubated for 48 hrs by MTT assay; type: toxicity, cell-based; conditions: chlorocebus sabaeus
# Plasmodium falciparum [9] = experiment: Antimalarial activity against Plasmodium falciparum K1 assessed as reduction in parasitic growth incubated for 48 hrs by Giemsa-staining counting based microscopic analysis; type: functional, organism-based; conditions: K1, 48 h
# Plasmodium falciparum [10] = experiment: Antiplasmodial activity against Plasmodium falciparum NF54; type: functional, organism-based
# [11] = Cytotoxicity against African green monkey Vero cells by MTT assay; type: toxicity, cell-based; conditions: African green monkey (Chlorocebus sabaeus)
# Plasmodium falciparum [12] = experiment: Antiplasmodial activity against Plasmodium falciparum Dd2 infected in human Erythrocyte measured after 72 hrs by SYBR green fluorescence dye based microplate reader analysis; type: functional, organism-based
# Plasmodium falciparum [13] = experiment: Antiplasmodial activity against Plasmodium falciparum K1 infected in human Erythrocyte measured after 72 hrs by SYBR green fluorescence dye based microplate reader analysis; type: functional, organism-based
# Plasmodium falciparum [14] = experiment: Antiplasmodial activity against chloroquine-sensitive Plasmodium falciparum 3D7 infected in human erythrocyte incubated for 72 hrs by SYBR green I staining based fluorescence assay; type: functional, organism-based; conditions: 3D7, Erythrocyte
# Plasmodium falciparum [15] = experiment: Antiplasmodial activity against chloroquine-sensitive Plasmodium falciparum 3D7 assessed as parasitic growth inhibition incubated for 72 hrs by SYBR Green staining based fluorescence analysis; type: functional, organism-based; conditions: 3D7, 72 h
# Plasmodium falciparum [16] = experiment: Antiplasmodial activity against chloroquine-resistant Plasmodium falciparum W2 assessed as parasitic growth inhibition incubated for 72 hrs by SYBR Green staining based fluorescence analysis; type: functional, organism-based; conditions: W2, 72 h
# [17] = Cytotoxicity against African green monkey Vero cells assessed as reduction in cell viability measured after 24 hrs; type: toxicity, cell-based; conditions: African green monkey (Chlorocebus sabaeus)
# HepG2 [18] = experiment: Cytotoxicity against human HepG2 cells assessed as reduction in cell viability incubated for 24 hrs by MTT assay; type: functional
# Plasmodium falciparum [19] = experiment: Antimalarial activity against chloroquine-sensitive Plasmodium falciparum 3D7 assessed as reduction in parasite growth incubated for 48 hrs by SYBR green assay; type: functional, organism-based; conditions: 3D7, 48 h
# Plasmodium falciparum [20] = experiment: Antimalarial activity against multi-drug resistant Plasmodium falciparum K1 assessed as reduction in parasite growth incubated for 48 hrs by SYBR green assay; type: functional, organism-based; conditions: K1, 48 h
# Plasmodium falciparum [21] = experiment: Antimalarial activity against Plasmodium falciparum D6 assessed as reduction in parasite growth incubated for 48 hrs by LDH assay; type: functional, organism-based; conditions: D6, 48 h
# [22] = Cytotoxicity against African green monkey Vero cells; type: toxicity, cell-based; conditions: chlorocebus sabaeus
# Plasmodium falciparum [23] = experiment: Antimalarial activity against Plasmodium falciparum W2 assessed as reduction in parasite growth incubated for 48 hrs by LDH assay; type: functional, organism-based; conditions: W2, 48 h
# Plasmodium falciparum [24] = experiment: Antiplasmodial activity against Plasmodium falciparum 3D7 assessed as inhibition of parasitic growth; type: functional, organism-based
# Plasmodium falciparum [25] = experiment: Antimalarial activity against Plasmodium falciparum Dd2 assessed as reduction in parasitic growth; type: functional, organism-based
# Plasmodium falciparum [26] = experiment: Antimalarial activity against chloroquine resistant Plasmodium falciparum FcB1/Colombia assessed as inhibition of parasite growth incubated for 24 hrs by liquid scintillation spectrometer analysis; type: functional, organism-based
# Plasmodium falciparum [27] = experiment: Antiplasmodial activity against Plasmodium falciparum 3D7 infected in human erythrocytes assessed as growth inhibition after 72 hrs by SYBR Gren-I fluorescent dye based method; type: functional, organism-based; conditions: 3D7, 72 h
# HepG2 [28] = experiment: Cytotoxicity against human HepG2 cells assessed as cell growth inhibition measured after 72 hrs by MTT assay; type: functional
# Plasmodium falciparum [29] = experiment: Antimalarial activity against drug sensitive Plasmodium falciparum NF54 assessed as inhibition of parasite growth; type: functional, organism-based
# Plasmodium falciparum [30] = experiment: Antimalarial activity against Plasmodium falciparum K1 assessed as inhibition of parasitic growth; type: functional, organism-based
# Plasmodium falciparum [31] = experiment: Antimalarial activity against Plasmodium falciparum 3D7 assessed as inhibition of parasite growth; type: functional, organism-based
# Plasmodium falciparum [32] = experiment: Antimalarial activity against CQ-resistant Plasmodium falciparum RKL9; type: functional, organism-based
# Plasmodium falciparum [33] = experiment: Antimalarial activity against chloroquine-resistant Plasmodium falciparum W2 assessed as growth inhibition incubated for 48 hrs by flow cytometry based analysis; type: functional, organism-based; conditions: W2, 48 h
# Plasmodium falciparum [34] = experiment: Antimalarial activity against chloroquine-sensitive Plasmodium falciparum NF54 assessed as reduction in cell growth; type: functional, organism-based
# [35] = Cytotoxicity against African monkey Vero cells assessed as reduction in cell viability incubated for 72 hrs by MTT assay; type: toxicity, cell-based; conditions: chlorocebus sabaeus
# Plasmodium berghei [36] = experiment: Antimalarial activity against liver stage Plasmodium berghei; type: functional, organism-based
structure (smiles),measurement,setting,value
Clc1ccc2c(Nc3cccnc3)ccnc2c1,IC50,Plasmodium falciparum [1],4350 nM
O=C(O)CCCCCCCCCCCNc1ccnc2cc(Cl)ccc12,IC50,Plasmodium falciparum [2],31 nM
same,IC50,Plasmodium falciparum [3],4000 nM
CCCCCCCCCCCC(=O)NCCCC(C)Nc1ccnc2cc(Cl)ccc12 (stereo unspecified),IC50,Plasmodium falciparum [4],45 nM
same,IC50,Plasmodium falciparum [5],160000 nM
COc1ccc(OC)c2c1CC(Nc1ccnc3cc(Cl)ccc13)C2,IC50,Plasmodium berghei [6],480 nM
CCOC(=O)c1nn(CCNc2ccnc3cc(Cl)ccc23)c2c1C(c1ccc(CC)cc1)C(C#N)=C(N)O2 (stereo unspecified),EC50,Plasmodium falciparum [7],13 nM
same,CC50 at 48 h,[8],17600 nM
same,EC50,Plasmodium falciparum [9],20 nM
CCOC(=O)c1nn(CCNc2ccnc3cc(Cl)ccc23)c2c1C(c1ccc(O)cc1)C(C#N)=C(N)O2 (stereo unspecified),EC50,Plasmodium falciparum [7],26 nM
same,CC50 at 48 h,[8],9240 nM
same,EC50,Plasmodium falciparum [9],7120 nM
CC(C)Cc1ccc(C(C)C(=O)NCCNc2ccnc3cc(Cl)ccc23)cc1 (stereo unspecified),IC50,Plasmodium falciparum [2],125 nM
same,IC50,Plasmodium falciparum [3],201 nM
CC1(C)c2ccccc2-c2cc(Cl)c(NC(=O)CNCCCNc3ccnc4cc(Cl)ccc34)cc21,IC50,Plasmodium falciparum [10],270 nM
same,IC50,[11],6330 nM
COc1ccc2c(c1)C[C@H](Nc1ccnc3cc(Cl)ccc13)C2,IC50,Plasmodium berghei [6],590 nM
C[C@H]1[C@H](OC(=O)CCC(=O)OCCNc2ccnc3cc(Cl)ccc23)O[C@@H]2O[C@@]3(C)CC[C@H]4[C@H](C)CC[C@@H]1[C@@]24OO3,EC50,Plasmodium falciparum [12],2.3 nM
same,EC50,Plasmodium falciparum [13],1.7 nM
same,EC50,Plasmodium falciparum [14],4.5 nM
CCOC(=O)c1nn(CCNc2ccnc3cc(Cl)ccc23)c2c1C(c1ccco1)C(C#N)=C(N)O2 (stereo unspecified),EC50,Plasmodium falciparum [7],113 nM
same,CC50 at 48 h,[8],84500 nM
same,EC50,Plasmodium falciparum [9],1610 nM
O=C(CNCCCNc1ccnc2cc(Cl)ccc12)Nc1cc2c(cc1Cl)-c1ccccc1C2,IC50,Plasmodium falciparum [10],346 nM
same,IC50,[11],11200 nM
OB1OCc2ccc(OCc3cn(CCN4CCN(c5ccnc6cc(Cl)ccc56)CC4)nn3)cc21,IC50,Plasmodium falciparum [15],5310 nM
same,IC50,Plasmodium falciparum [16],4860 nM
same,IC50 at 24 h,[17],82400 nM
C#CCCCN(CCNc1ccnc2cc(Cl)ccc12)C(=O)CCC(=O)O[C@@H]1O[C@@H]2O[C@@]3(C)CC[C@H]4[C@H](C)CC[C@@H]([C@H]1C)[C@@]24OO3,EC50,Plasmodium falciparum [12],1.6 nM
same,EC50,Plasmodium falciparum [13],1.3 nM
same,EC50,Plasmodium falciparum [14],3.5 nM
C#CCNc1ccnc2cc(Cl)ccc12,MLD50,HepG2 [18],407 µM
same,IC50,Plasmodium falciparum [19],377 nM
same,IC50,Plasmodium falciparum [20],405 nM
O=C(O)C(Cc1c[nH]c2ccccc12)Nc1ccnc2cc(Cl)ccc12 (stereo unspecified),IC50,Plasmodium falciparum [2],8000 nM
same,IC50,Plasmodium falciparum [3],5000 nM
N=C(N=C(N)N)SCCCNc1cc(C(F)(F)F)nc2c(C(F)(F)F)cccc12,IC50,Plasmodium falciparum [21],5540 nM
same,CC50,[22],> 9170 nM
same,IC50,Plasmodium falciparum [23],7210 nM
Clc1ccc2c(NC3Cc4ccccc4C3)ccnc2c1,IC50,Plasmodium berghei [6],600 nM
CCCCC1(CCCC)c2ccccc2-c2cc(Cl)c(NC(=O)CNCCCNc3ccnc4cc(Cl)ccc34)cc21,IC50,Plasmodium falciparum [10],139 nM
same,IC50,[11],15900 nM
N#Cc1ccc2c(CNCCCNc3ccnc4cc(Cl)ccc34)csc2c1,IC50,Plasmodium falciparum [24],50.2 nM
same,IC50,Plasmodium falciparum [25],18.6 nM
CCOP(=O)(CCCN(O)C(=O)CCC(=O)NCCNc1ccnc2cc(Cl)ccc12)OCC,IC50,Plasmodium falciparum [26],4200 nM
Clc1ccc2c(NNc3cccnc3)ccnc2c1,IC50,Plasmodium falciparum [1],2210 nM
CC1(C)[C@@H]2CC=C(CC(=O)Nc3ccnc4ccccc34)[C@H]1C2,EC50,Plasmodium falciparum [27],26400 nM
same,CC50,HepG2 [28],3890 nM
same,EC50,Plasmodium falciparum [29],23400 nM
same,EC50,Plasmodium falciparum [30],13900 nM
Clc1ccc2c(NCCNCc3csc4ccccc34)ccnc2c1,IC50,Plasmodium falciparum [24],> 500 nM
same,IC50,Plasmodium falciparum [25],14.4 nM
O=[N+]([O-])c1ccc(/C=N/Nc2ccnc3cc(Cl)ccc23)cc1,IC50,Plasmodium falciparum [31],9 nM
same,IC50,Plasmodium falciparum [32],9 nM
NCCNc1ccnc2cc(Cl)ccc12,MLD50,HepG2 [18],179 µM
same,IC50,Plasmodium falciparum [19],273 nM
same,IC50,Plasmodium falciparum [20],218 nM
C[C@@H]1CC[C@H]2[C@@H](C)C(=O)O[C@@H]3O[C@@]4(C)CC[C@@H]1[C@]32OO4 [ARTEMISININ],EC50,Plasmodium falciparum [7],1 nM
same,CC50 at 48 h,[8],435000 nM
same,IC50,Plasmodium falciparum [33],5 nM
same,EC50,Plasmodium falciparum [9],1 nM
C[C@H]1[C@H](OC(=O)CCC(=O)O)O[C@@H]2O[C@@]3(C)CC[C@H]4[C@H](C)CC[C@@H]1[C@@]24OO3 [ARTESUNATE],IC50,Plasmodium falciparum [34],< 5200 nM
CCN(CC)CCCC(C)Nc1ccnc2cc(Cl)ccc12 (stereo unspecified) [CHLOROQUINE],CC50 at 72 h,[35],86800 nM
same,EC50,Plasmodium falciparum [7],2 nM
same,EC50,Plasmodium falciparum [9],330 nM
O=C(O)c1cn(C2CC2)c2cc(N3CCNCC3)c(F)cc2c1=O [CIPROFLOXACIN],IC50,Plasmodium berghei [36],60 nM
